# Reference: patent US10342480B2, “Magnetoencephalography biomarkers of GABA-B agonist drug activity in autism spectrum disorders” (THE CHILDREN'S HOSPITAL OF PHILADELPHIA, priority 2013, dated 2019)
# Experiments:
# baseline gamma power = conditions: NMDAR antagonists; in vivo LFP and EEG recordings in awake rodents; cited from earlier work
# [1] = system: auditory brain activity (M100 latency, gamma-band ITC, steady state gamma) in autism; assay: Magnetoencephalography (MEG) of auditory responses at baseline and 12 weeks after treatment, single subject from clinical trial; type: in vivo, human
# Method: FIG. 5 provides graphs of M100 latency in autism in response to STX209, showing baseline and post-treatment.
# To measure M100 STG latency, a 1 Hz (6 dB/octave, forward) to 40 Hz (48 dB/octave, zero-phase) bandpass filter was applied and left and right M100 STG peak latency (measured in nano-Ampere-meters, nAm) was calculated from the largest point in the M100 scoring window (90 to 190 ms) using in-house MatLab software.
# The calculation of single-trial phase and magnitude for the left and right STG sources used a modification of procedures (Hoechstetter et al. (2004) Brain Topogr, 16:233-8.) where in each participant the derived source model was applied to the raw unfiltered data. Transformation from the time domain to the time-frequency domain used complex demodulation procedures (Papp et al. (1977) Biomed Sci Instrum, 13:135-45) implemented in BESA 5.2, using frequencies between 4 and 80 Hz, in steps of 2 Hz.1 Continuous data were analyzed relative to the tone onset every 25 ms, utilizing +/−39.4 ms and +/−2.83 Hz (full width at half maximum parameters) of contiguous data at each 25 ms step. Time-frequency measures were computed from −400 to 400 ms relative to stimulus onset. For evoked activity, background activity at each frequency (average power −400 to −100 ms) was calculated and subtracted as a function of frequency. In addition to evoked activity, for each time-frequency bin, a measure of phase-locking referred to as inter-trial coherence was computed as
# [formula] where the sum is over all N trials, and Ø (k) is the phase of the signal in the k^th trial. Inter-trial coherence (ITC) is a normalized measure with ITC=1 reflecting no phase variability and ITC=0 reflecting maximal phase variability across trials (Lachaux et al. (1999) Hum. Brain Mapp, 8:194-208). Group Comparisons
# A single subject from a recent phase/T clinical trial of STX209 (arbaclofen), a […] agonist, underwent MEG at baseline and at 12 weeks after treatment. […] Indeed, a reduction in 100 ms latency for 4 stimuli in both hemispheres was observed.
SMILES,baseline gamma power (baseline gamma power),"auditory M100 latency ([1]; MEG at baseline vs 12 weeks after treatment, 4 stimuli, both hemispheres, FIG. 5)","gamma-band inter-trial coherence (ITC) ([1]; MEG at baseline vs 12 weeks after treatment, both hemispheres, FIG. 6)","steady state gamma power ([1]; baseline vs post-treatment, elicited by AM tone, driven at 40 Hz, FIG. 7)"
C[C@]12N[C@H](Cc3ccccc31)c1ccccc12 [MK-801],dose-dependent increase in baseline gamma power,,,
c1ccc(C2(N3CCCCC3)CCCCC2)cc1 [PCP],dose-dependent increase in baseline gamma power,,,
"NC[C@H](CC(=O)O)c1ccc(Cl)cc1 [STX209, arbaclofen]",,shortened post-treatment,gamma band ITC was restored after treatment,boosted post-treatment
CNC1(c2ccccc2Cl)CCCCC1=O (stereo not drawn) [ketamine],dose-dependent increase in baseline gamma power,,,
